According to patent US12685715B2, “Compositions, methods of treatment, and containers including compositions” (University of Florida Research Foundation, Inc., priority 2018, dated 2026):

Columns and labels:
[1] = Cysteamine degradation in anti-oxidant formulations, vials exposed to atmospheric oxygen (UV-vis); type: physicochemical
Protocol: All formulations containing hydrophilic components (SUR, CAT) were prepared by stirring at room temperature till dissolution. All formulations were tested for pH and adjusted to 7.4 if required. For each formulation, 20 mL of liquid was placed into a 22 mL, flat bottom, 28 mm diameter, glass vial (Fisher Scientific). Each formulation was purged with nitrogen gas for two hours to minimize dissolved oxygen. After purging, 2.0±0.1 mg cysteamine was added to each formulation to achieve a concentration of 0.1 mg mL^−1 which is about one-fourth of the concentration in the commercial formulation. We are interested in the relative changes in degradation rates by addition of anti-oxidants so reducing concentration will not be a significant factor. […] The vials were then left exposed to atmospheric oxygen to ensure that the degradation rates were not limited by availability of oxygen. The formulations were periodically sampled for measurement of UV spectra in 190-350 nm range (Thermo Scientific™ GENESYS™ 10S UV-Vis Spectrophotometer). The spectra of cysteamine and the oxidation product cystamine are sufficiently different so the combined spectra obtained from the samples can be separated via a least square fit to yield the concentrations of both components. After analyzing, the solution was returned to the vial to conserve total volume. […]

[2] = Cysteamine degradation in eye drop bottles with OMAC film barrier / combined approach, drops withdrawn periodically; type: physicochemical; settings: calculated, 30 μL drop
Protocol: To explore the effect of any alterations in packaging, it was considered more realistic to use a commercial eye drop bottle. […] As these systems were in a nearly closed system, evaporation was not a concern, so they could be run for longer durations of time compared to the anti-oxidant experiments performed open to atmosphere. At certain time intervals, the screw cap was removed, and the bottle was squeezed to eject one drop. The mass of the drop was measured, and the drop was diluted 100 fold by PBS. This diluted solution was then measured by UV-vis spectrophotometry to determine the degradation of cysteamine.
Catalase (0.15%) was added to the cysteamine solution, which was nitrogen purged for an additional half hour. The solution was then placed in the bottle and topped with a 1.0 cm layer of 50% (v/v) soybean oil and 50% vitamin E. The bottle was then capped and tested for degradation of cysteamine while periodically withdrawing eye drop samples, as described in section 2.2.2.2.

NCCS [cysteamine, Cysteamine]
degradation rate ([1]; 0.1 mg mL^−1 of cysteamine): 126 ± 4 µg/h | degradation rate ([1]; 4.4 mg mL^−1 of cysteamine): 132 ± 15 µg/h | degradation rate from air entering the bottle after each drop [2]: roughly 10 μg/hr
